Like-named read-outs stand apart in the source and are kept apart here.
How the values were obtained:
[1] = Plasma radiometabolite analysis during PET scans; assay type: in vivo, rhesus monkeys; settings: 30 min p.i.
Description: Arterial blood samples were collected during the PET scans to measure the radioactivity in plasma for generation of the metabolite-corrected arterial plasma input function. Plasma radiometabolite analysis was performed using the column-switching method, following a published protocol. Briefly, arterial blood samples were collected at 3-, 8-, 15-, 30-, 60-, 90-, 120-, and 180-min post-injection (p. i.), treated with urea (8 M), filtered, and injected onto a self-packed short column (4.6 × 19 mm) eluting with 1% MeCN in water at a flow rate of 2 mL/min. The sample was then back flushed onto a Gemini-NX column (5 μm, 4.6 mm × 250 mm) eluting with 40% MeCN/60% 0.1 M ammonium formate (pH 6.4) at a flow rate of 1.2 mL/min. The eluent was fraction-collected using an automated spectrum chromatography CF-1 fraction collector. Activity in the whole blood, plasma, filtrated plasma-urea mix, filters, and HPLC fractions were counted with automatic gamma well-counter (Wizard 2, PerkinElmer). The sample recovery rate, extraction efficiency, and HPLC fraction recovery were monitored. The unmetabolized [^18F]SDM-16 parent fraction was determined as the ratio of the sum of radioactivity in fractions containing the parent compound to the total amount of radioactivity collected and fitted with inverted Gamma4 approaches.
[^18F]SDM-16 had higher metabolite-corrected plasma SUV than the other SV2A radiotracers, indicating slower plasma clearance and higher metabolic stability (Fig. 2a). Whole-blood and plasma-input functions were highly consistent between the two animals, with a stable plasma to whole-blood ratio of 0.93 ± 0.13 over the entire 180-min acquisition period (Fig. S1).

SV2A [2] = target: SV2A (Macaca mulatta, UniProt H9EQH8); settings: previously determined; cited from earlier work
[3] = female rhesus macaques, 1-h voiding model; cited from earlier work
SV2A [4] = settings: 1TC, cited from earlier work
[5] = Measurement of lipophilicity (octanol / PBS pH 7.4); assay type: physicochemical; settings: octanol/PBS pH 7.4
Description: The logP of [^18F]SDM-16 was determined by a method modified from previously published procedures. Briefly, an aliquot of […] (10 µCi) of the radioligand was added to a 2-mL microtube containing 0.8 mL of octanol and 0.8 mL of 1 × phosphate buffered saline (1 × PBS, pH 7.4). The mixture was vortexed for 30 s and then centrifuged at 2000 g for 2 min. A subsample of the octanol (0.1 mL) and 1 × PBS (0.5 mL) layers was evaluated with a gamma counter. The major portion of the octanol layer (0.5 mL) was diluted with another 0.3 mL of octanol, mixed with a fresh portion of 0.8 mL of PBS, vortexed, centrifuged, and analyzed as described above. This process was repeated until consistent log P values were obtained, with five consecutive equilibration procedures being performed for each logP measurement. Four separate measurements were performed for [^18F]SDM-16 on different days.

[6] = Plasma free fraction (fp) by ultrafiltration; assay type: in vitro ADME, rhesus monkey; settings: monkey, plasma (separated from spiked whole blood)
Description: The unbound fraction of [^18F]SDM-16 in plasma (fp) of rhesus monkey was measured in triplicate using the ultrafiltration method. Briefly, [^18F]SDM-16 solution was added to 3 mL of whole blood. After incubation at ambient temperature for 5 min, the blood sample was centrifuged at 3900 rpm for 5 min. A sample of the supernatant plasma (0.3 mL) was loaded onto the reservoir of a Centrifree® Ultrafiltration device (Merck Millipore Ltd. Tullagreen, Carrigtwohill, Co. Cork, IRELAND) in triplicate and centrifuged at 1228 g for 20 min. The fp value was calculated as the ratio of radioactivity in the filtrate to that in the plasma.

SV2A [7] = assay: Brain PET imaging with 1TC kinetic modeling
[8] = Brain PET imaging with 1TC kinetic modeling; settings: rhesus monkey, in vivo
[9] = Free base fraction in plasma by modified Henderson-Hasselbalch equation (Eq. 1); settings: Eq. 1, plasma pH 7.4
[10] = conjugate acid; cited from earlier work

Chain of SV2A (Macaca mulatta, UniProt H9EQH8) (H9EQH8 1-742): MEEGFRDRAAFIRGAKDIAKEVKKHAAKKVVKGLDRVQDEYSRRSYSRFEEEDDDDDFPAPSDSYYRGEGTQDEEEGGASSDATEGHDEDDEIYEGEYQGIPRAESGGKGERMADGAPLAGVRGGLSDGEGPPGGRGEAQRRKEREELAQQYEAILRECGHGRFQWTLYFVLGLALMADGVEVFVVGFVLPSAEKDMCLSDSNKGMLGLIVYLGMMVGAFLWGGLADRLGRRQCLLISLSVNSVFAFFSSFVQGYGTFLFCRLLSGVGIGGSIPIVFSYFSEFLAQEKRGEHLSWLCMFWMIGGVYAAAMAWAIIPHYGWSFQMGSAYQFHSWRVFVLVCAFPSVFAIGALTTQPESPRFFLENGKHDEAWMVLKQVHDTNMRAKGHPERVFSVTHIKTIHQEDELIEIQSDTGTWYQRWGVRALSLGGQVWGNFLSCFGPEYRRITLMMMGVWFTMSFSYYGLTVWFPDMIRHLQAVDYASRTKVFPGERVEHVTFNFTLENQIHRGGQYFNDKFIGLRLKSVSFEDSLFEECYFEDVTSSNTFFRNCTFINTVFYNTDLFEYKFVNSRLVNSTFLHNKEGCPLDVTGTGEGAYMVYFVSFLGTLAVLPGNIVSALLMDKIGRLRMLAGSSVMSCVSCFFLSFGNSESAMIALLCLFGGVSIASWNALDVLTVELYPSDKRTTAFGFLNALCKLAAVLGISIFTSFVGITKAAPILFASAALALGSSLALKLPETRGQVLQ

## Cc1cnccc1CN1C[C@@H](c2cc(F)cc([18F])c2)CC1=O [[^18F]SynVesT-1]
[1]
  parent fraction in plasma: 42 ± 13%
SV2A [2]
  VND: 4.96 mL/cm^3
[3]
  effective dose (ED): 20 µSv/MBq
SV2A [4]; Amygdala
  VT (baseline): 24.8 ± 8.5 mL/cm^3
SV2A [4]; Brainstem
  VT (baseline): 16.3 ± 3.6 mL/cm^3
SV2A [4]; Caudate
  VT (baseline): 35.0 ± 6.3 mL/cm^3
SV2A [4]; Centrum semiovale
  VT (baseline): 8.9 ± 2.0 mL/cm^3
SV2A [4]; Cerebellum
  VT (baseline): 28.9 ± 6.8 mL/cm^3
SV2A [4]; Cingulate cortex
  VT (baseline): 48.5 ± 8.9 mL/cm^3
SV2A [4]; Frontal cortex
  VT (baseline): 47.1 ± 9.1 mL/cm^3
SV2A [4]; Globus pallidus
  VT (baseline): 21.6 ± 4.2 mL/cm^3
SV2A [4]; Hippocampus
  VT (baseline): 30.1 ± 5.6 mL/cm^3
SV2A [4]; Insular cortex
  VT (baseline): 46.1 ± 9.2 mL/cm^3
SV2A [4]; Nucleus accumbens
  VT (baseline): 45.2 ± 7.9 mL/cm^3
SV2A [4]; Occipital cortex
  VT (baseline): 43.7 ± 10.7 mL/cm^3
SV2A [4]; Putamen
  VT (baseline): 34.6 ± 4.9 mL/cm^3
SV2A [4]; Temporal cortex
  VT (baseline): 42.2 ± 10.0 mL/cm^3
SV2A [4]; Thalamus
  VT (baseline): 34.2 ± 3.0 mL/cm^3
[5]
  logP: 2.32
[6]
  fraction unbound at 5 min: 0.43
SV2A [7]; Amygdala
  BPND, VND method: 4.24 ± 4.05
  BPND, VT(CS) method: 1.9 ± 1.1
  K1: 0.56 ± 0.36 mL/cm^3 per min
SV2A [7]; Anterior cingulate
  BPND, VND method: 8.44 ± 4.27
  BPND, VT(CS) method: 4.1 ± 0.7
  K1: 1.05 ± 0.66 mL/cm^3 per min
SV2A [7]; Brainstem
  BPND, VND method: 2.30 ± 0.99
  BPND, VT(CS) method: 0.8 ± 0.0
  K1: 1.37 ± 1.26 mL/cm^3 per min
SV2A [7]; Caudate
  BPND, VND method: 6.23 ± 2.96
  BPND, VT(CS) method: 3.0 ± 0.4
  K1: 0.95 ± 0.49 mL/cm^3 per min
SV2A [7]; Cerebellum
  BPND, VND method: 4.74 ± 1.81
  BPND, VT(CS) method: 2.2 ± 0.2
  K1: 0.88 ± 0.41 mL/cm^3 per min
SV2A [7]; Cingulate cortex
  BPND, VND method: 9.04 ± 3.59
  BPND, VT(CS) method: 4.5 ± 0.4
SV2A [7]; Frontal cortex
  BPND, VND method: 8.64 ± 3.59
  BPND, VT(CS) method: 4.3 ± 0.6
  K1: 0.79 ± 0.39 mL/cm^3 per min
SV2A [7]; Globus pallidus
  BPND, VND method: 3.42 ± 1.90
  BPND, VT(CS) method: 1.4 ± 0.3
  K1: 0.73 ± 0.49 mL/cm^3 per min
SV2A [7]; Guo plot of baseline VT
  in vivo Kd ratio, Kd(tracer)/Kd([^18F]SDM-16): 0.41
SV2A [7]; Hippocampus
  BPND, VND method: 5.19 ± 2.56
  BPND, VT(CS) method: 2.4 ± 0.4
  K1: 0.68 ± 0.34 mL/cm^3 per min
SV2A [7]; Insular cortex
  BPND, VND method: 8.41 ± 3.27
  BPND, VT(CS) method: 4.2 ± 0.3
  K1: 0.93 ± 0.48 mL/cm^3 per min
SV2A [7]; Mean ± SD over brain regions
  K1: 0.91 ± 0.28 mL/cm^3 per min
SV2A [7]; Nucleus accumbens
  BPND, VND method: 8.41 ± 3.54
  BPND, VT(CS) method: 4.1 ± 0.4
  K1: 0.99 ± 0.63 mL/cm^3 per min
SV2A [7]; Occipital cortex
  BPND, VND method: 7.61 ± 2.51
  BPND, VT(CS) method: 3.9 ± 0.2
  K1: 0.88 ± 0.47 mL/cm^3 per min
SV2A [7]; Putamen
  BPND, VND method: 6.41 ± 2.96
  BPND, VT(CS) method: 2.9 ± 0.4
  K1: 1.25 ± 0.82 mL/cm^3 per min
SV2A [7]; Temporal cortex
  BPND, VND method: 7.36 ± 2.64
  BPND, VT(CS) method: 3.7 ± 0.3
  K1: 0.74 ± 0.34 mL/cm^3 per min
SV2A [7]; Thalamus
  BPND, VND method: 6.59 ± 3.72
  BPND, VT(CS) method: 2.9 ± 0.7
  K1: 0.93 ± 0.71 mL/cm^3 per min
[8]
  fraction unbound: 0.101
[9]
  fraction present in plasma as free base: 81%

## lutidine
[10]
  pKa exp.: 6.77
